In one test the test system is M-NFS-60 cells. Kind of test: M-NFS-60 cell proliferation assay (resazurin). It counts as cell-based. The note with it: 67 h incubation. Summed up:
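Cells kept in medium containing 20 ng/mL mouse recombinant M-CSF. Fluorescence was read at ex 540/em 600 nm, and IC50 was fitted from percent inhibition across a range of inhibitor concentrations.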

A further test relates to osteoclast precursors. Kind of test: Osteoclast tartrate-resistant acid phosphatase assay. The class given is cell-based. The note with it: RANKL and M-CSF, 7-14 days, tartrate-resistant acid phosphatase activity.
For test [1], the target named is T1, unphosphorylated c-FMS kinase (uFMS, Seq. ID no. 1) (Homo sapiens, UniProt P07333).
T1 construct: purchased Millipore
T1 sequence (P07333 538-972): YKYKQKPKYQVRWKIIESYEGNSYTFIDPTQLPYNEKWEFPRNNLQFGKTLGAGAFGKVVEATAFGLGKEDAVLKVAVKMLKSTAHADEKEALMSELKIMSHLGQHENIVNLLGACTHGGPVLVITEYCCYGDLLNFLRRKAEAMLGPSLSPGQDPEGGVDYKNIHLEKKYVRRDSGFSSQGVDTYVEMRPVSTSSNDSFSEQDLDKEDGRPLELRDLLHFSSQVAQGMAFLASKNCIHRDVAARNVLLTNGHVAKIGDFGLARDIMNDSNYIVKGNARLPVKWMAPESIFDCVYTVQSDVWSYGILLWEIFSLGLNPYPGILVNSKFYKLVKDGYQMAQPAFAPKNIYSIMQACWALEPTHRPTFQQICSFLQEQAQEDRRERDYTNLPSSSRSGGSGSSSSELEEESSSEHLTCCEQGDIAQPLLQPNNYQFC
As to the kind of experiment: uFMS kinase enzymatic assay (pyruvate kinase/lactate dehydrogenase coupled). It counts as biochemical. The note with it: ATP 500 μM, rate 3 to 4 h. Summed up:
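Coupled PK/LDH assay following NADH oxidation at A340 with 10 nM unphosphorylated FMS, 1 mg/mL polyE4Y, 500 μM ATP in 90 mM Tris pH 7.5, 0.2% octyl-glucoside, 1% DMSO. Read continuously 4 h at 30 °C; rate from 3–4 h window versus no-compound control; IC50 from percent-inhibition series.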

For test [2], the system named is phospho-FMS in THP-1 cells. Kind of test: Phospho-FMS ELISA assay in THP-1 cells. It counts as cell-based. The settings on record: Homo sapiens, 4 h compound, M-CSF stimulation 5 min, read-out: pFMS inhibition in THP-1 cells. As to the method:
THP-1 cells (catalog #TIB-202) were obtained from the ATCC. Briefly, cells were grown in RPMI 1640 supplemented with 10% characterized fetal bovine serum, 1% sodium pyruvate, 1% Penicillin-Streptomycin-Glutamine (PSG) and 55 uM 2-mercaptoethanol (Invitrogen, Carlsbad, Calif.) at 37 degrees Celsius, 5% CO2, 95% humidity. Cells were allowed to expand until reaching 70-95% confluency at which point they were subcultured or harvested for assay use.
A serial dilution of test compound was diluted 1:100 in assay medium (RPMI 1640 supplemented with 10% characterized fetal bovine serum) in a 96 well black clear bottom plate (Corning, Corning, N.Y.). In a separate 96 well black clear bottom plate, one hundred and fifty thousand THP-1 cells were added per well in 100 μL in assay medium. Fifty microliters of diluted compound was then added to the cells. Plates were incubated for 4 hours at 37 degrees Celsius, 5% CO2, 95% humidity. At the end of the incubation period, cells were stimulated with 50 μL of a 100 nM solution of recombinant human M-CSF (catalog #216-MC, R & D Systems, Minneapolis, Minn.) in assay medium and the plate was incubated for 5 minutes at 37 degrees Celsius, 5% CO2, 95% humidity. Lysates were prepared and used to perform the phospho-FMS ELISA as described by the manufacturer (catalog #DYC3268, R & D Systems, Minneapolis, Minn.). GraphPad Prism was used to calculate IC50 values obtained from data generated from the ELISA assay.
(An ELISA detects its analyte on a solid surface through an enzyme-linked reagent.)

Molecules are shown by their SMILES.

`Cc1nc(-n2nc(C3CCCCC3)[nH]c2=O)ccc1Oc1ccnc(-c2cnn(C)c2)c1` [Example 6, 3-cyclohexyl-1-(6-methyl-5-((2-(1-methyl-1H-pyrazol-4-yl)pyridin-4-yl)oxy)pyridin-2-yl)-1H-1,2,4-triazol-5(4H)-one]: the IC50 is at most 0.01 µM with M-NFS-60 cells, 0.01 to 0.1 µM in the test on osteoclast precursors, at most 0.01 µM in test [1] and at most 0.01 µM in test [2].

With `Cc1nc(-n2nc(C3(C)CC3)[nH]c2=O)ccc1Oc1ccnc(-c2cnn(C)c2)c1` [Example 27, 1-(6-methyl-5-((2-(1-methyl-1H-pyrazol-4-yl)pyridin-4-yl)oxy)pyridin-2-yl)-3-(1-methylcyclopropyl)-1H-1,2,4-triazol-5(4H)-one], the IC50 is 0.01 to 0.1 µM with M-NFS-60 cells, 0.01 to 0.1 µM with osteoclast precursors, at most 0.01 µM in test [1] and 0.01 to 0.1 µM in test [2].

`Cc1cc(-n2nc(C(C)(C)C)[nH]c2=O)ncc1Oc1ccnc(-c2cnn(C)c2)c1` [Example 31, 3-(tert-butyl)-1-(4-methyl-5-((2-(1-methyl-1H-pyrazol-4-yl)pyridin-4-yl)oxy)pyridin-2-yl)-1H-1,2,4-triazol-5(4H)-one]: the IC50 was 0.01 to 0.1 µM in the test on M-NFS-60 cells, 0.01 to 0.1 µM with osteoclast precursors, at most 0.01 µM in test [1] and 0.01 to 0.1 µM in test [2].

Turning to `COCC(C)(C)c1nn(-c2ccc(Oc3ccnc(-c4cnn(C)c4)c3)c(C)n2)c(=O)[nH]1` [Example 46, 3-(1-methoxy-2-methylpropan-2-yl)-1-(6-methyl-5-((2-(1-methyl-1H-pyrazol-4-yl)pyridin-4-yl)oxy)pyridin-2-yl)-1H-1,2,4-triazol-5(4H)-one], the IC50 in the test on M-NFS-60 cells fell in the range of 0.1 to 1 µM; in the test on osteoclast precursors, 0.01 to 0.1 µM; in test [1], 0.01 to 0.1 µM; in test [2] it was 0.1 to 1 µM.

With `Cc1nc(-n2nc(C(C)(C)C)oc2=O)ccc1Oc1ccnc(-c2cnn(C)c2)c1` [Example 49, 5-(tert-butyl)-3-(6-methyl-5-((2-(1-methyl-1H-pyrazol-4-yl)pyridin-4-yl)oxy)pyridin-2-yl)-1,3,4-oxadiazol-2(3H)-one], the IC50 (in the test on M-NFS-60 cells; with osteoclast precursors; in test [1]; in test [2]) was 0.01 to 0.1 µM throughout.

As to `Cc1nc(-n2nc(Cc3ccc(F)cc3)[nH]c2=O)ccc1Oc1ccnc(-c2cnn(C)c2)c1` [Example 1, 3-(4-fluorobenzyl)-1-(6-methyl-5-((2-(1-methyl-1H-pyrazol-4-yl)pyridin-4-yl)oxy)pyridin-2-yl)-1H-1,2,4-triazol-5(4H)-one], the IC50 in the test with M-NFS-60 cells is 0.01 to 0.1 µM; in the test on osteoclast precursors it was 0.01 to 0.1 µM; in test [1], at most 0.01 µM; in test [2] it was 0.01 to 0.1 µM.

With `Cc1nc(-n2nc(C(C)(C)C)[nH]c2=O)ccc1Oc1ccnc(-c2cnn(C)c2)c1` [Example 7, 3-(tert-butyl)-1-(6-methyl-5-((2-(1-methyl-1H-pyrazol-4-yl)pyridin-4-yl)oxy)pyridin-2-yl)-1H-1,2,4-triazol-5(4H)-one], the IC50 is 0.01 to 0.1 µM in the test on M-NFS-60 cells, 0.01 to 0.1 µM in the test with osteoclast precursors, at most 0.01 µM in test [1] and 0.01 to 0.1 µM in test [2].

As to `Cc1nc(-n2nc(C(C)(C)C)[nH]c2=O)ccc1Oc1ccnc(-c2cnco2)c1` [Example 39, 3-(tert-butyl)-1-(6-methyl-5-((2-(oxazol-5-yl)pyridin-4-yl)oxy)pyridin-2-yl)-1H-1,2,4-triazol-5(4H)-one], the IC50 in the test on M-NFS-60 cells fell in the range of 0.01 to 0.1 µM; with osteoclast precursors, 0.01 to 0.1 µM; in test [1], 0.01 to 0.1 µM; in test [2], 0.1 to 1 µM.

Consider `Cc1nc(-n2nc(C(C)(C)C)[nH]c2=O)ccc1Oc1cc(-c2cnn(C)c2)ncn1` [Example 47, 3-(tert-butyl)-1-(6-methyl-5-((6-(1-methyl-1H-pyrazol-4-yl)pyrimidin-4-yl)oxy)pyridin-2-yl)-1H-1,2,4-triazol-5(4H)-one], for which the IC50 was in the range of 0.1 to 1 µM with M-NFS-60 cells, 0.01 to 0.1 µM with osteoclast precursors, 0.01 to 0.1 µM in test [1] and 0.01 to 0.1 µM in test [2].

Take `Cc1nc(-n2nc(CC(C)(C)C)[nH]c2=O)ccc1Oc1ccnc(-c2cnn(C)c2)c1` [Example 36, 1-(6-methyl-5-((2-(1-methyl-1H-pyrazol-4-yl)pyridin-4-yl)oxy)pyridin-2-yl)-3-neopentyl-1H-1,2,4-triazol-5(4H)-one]: the IC50 was 0.01 to 0.1 µM in the test with M-NFS-60 cells, 0.01 to 0.1 µM with osteoclast precursors, at most 0.01 µM in test [1] and 0.01 to 0.1 µM in test [2].

In the case of `Cc1cc(-c2cc(Oc3ccc(-n4nc(C(C)(C)C)[nH]c4=O)nc3C)ccn2)ccn1` [Example 9, 3-(tert-butyl)-1-(6-methyl-5-((2′-methyl-[2,4′-bipyridin]-4-yl)oxy)pyridin-2-yl)-1H-1,2,4-triazol-5(4H)-one], the IC50 (with M-NFS-60 cells; in the test on osteoclast precursors; in test [1]; in test [2]) was 0.01 to 0.1 µM throughout.

In the case of `CCn1cc(-c2cc(Oc3ccc(-n4nc(C(C)(C)C)[nH]c4=O)nc3C)ccn2)cn1` [Example 38, 3-(tert-butyl)-1-(5-((2-(1-ethyl-1H-pyrazol-4-yl)pyridin-4-yl)oxy)-6-methylpyridin-2-yl)-1H-1,2,4-triazol-5(4H)-one], the IC50 was 0.01 to 0.1 µM in the test with M-NFS-60 cells, 0.01 to 0.1 µM with osteoclast precursors, at most 0.01 µM in test [1] and 0.1 to 1 µM in test [2].

Turning to `Cn1cc(-c2cc(Oc3ccc(-n4nc(Cc5ccc(F)cc5)[nH]c4=O)nc3)ccn2)cn1` [Example 3, 3-(4-fluorobenzyl)-1-(5-((2-(1-methyl-1H-pyrazol-4-yl)pyridin-4-yl)oxy)pyridin-2-yl)-1H-1,2,4-triazol-5(4H)-one], the IC50 in the test on M-NFS-60 cells was 0.01 to 0.1 µM; in the test on osteoclast precursors, 0.01 to 0.1 µM; in test [1], at most 0.01 µM; in test [2] it was 0.01 to 0.1 µM.

As for `Cn1cc(-c2cc(Oc3ccc(-n4nc(C(C)(C)C)[nH]c4=O)nc3)ccn2)cn1` [Example 4, 3-(tert-butyl)-1-(5-((2-(1-methyl-1H-pyrazol-4-yl)pyridin-4-yl)oxy)pyridin-2-yl)-1H-1,2,4-triazol-5(4H)-one], the IC50 was 0.01 to 0.1 µM in the test on M-NFS-60 cells, 0.01 to 0.1 µM in the test on osteoclast precursors, at most 0.01 µM in test [1] and 0.01 to 0.1 µM in test [2].

Consider `Cc1nc(-n2nc(C(C)(C)C)n(C)c2=O)ccc1Oc1ccnc(-c2cnn(C)c2)c1` [Example 13, 3-(tert-butyl)-4-methyl-1-(6-methyl-5-((2-(1-methyl-1H-pyrazol-4-yl)pyridin-4-yl)oxy)pyridin-2-yl)-1H-1,2,4-triazol-5(4H)-one], for which the IC50 in the test with M-NFS-60 cells was 0.1 to 1 µM; in the test on osteoclast precursors it was 0.1 to 1 µM; in test [1], 0.01 to 0.1 µM; in test [2], 0.1 to 1 µM.

On to `Cc1nc(-n2nc(CC(C)C)[nH]c2=O)ccc1Oc1ccnc(-c2cnn(C)c2)c1` [Example 22, 3-isobutyl-1-(6-methyl-5-((2-(1-methyl-1H-pyrazol-4-yl)pyridin-4-yl)oxy)pyridin-2-yl)-1H-1,2,4-triazol-5(4H)-one], for which the IC50 in the test on M-NFS-60 cells is at most 0.01 µM; with osteoclast precursors, 0.01 to 0.1 µM; in test [1], at most 0.01 µM; in test [2] it was at most 0.01 µM.

Take `Cc1ccc(-c2cc(Oc3ccc(-n4nc(C(C)(C)C)[nH]c4=O)nc3C)ccn2)cn1` [Example 10, 3-(tert-butyl)-1-(6-methyl-5-((6′-methyl-[2,3′-bipyridin]-4-yl)oxy)pyridin-2-yl)-1H-1,2,4-triazol-5(4H)-one]: the IC50 (in the test with M-NFS-60 cells; in the test on osteoclast precursors; in test [1]; in test [2]) was 0.01 to 0.1 µM in each case.

`Cc1nc(-n2cc(C(C)(C)C)[nH]c2=O)ccc1Oc1ccnc(-c2cnn(C)c2)c1` [Example 48, 4-(tert-butyl)-1-(6-methyl-5-((2-(1-methyl-1H-pyrazol-4-yl)pyridin-4-yl)oxy)pyridin-2-yl)-1H-imidazol-2(3H)-one]: the IC50 (in the test on M-NFS-60 cells; in the test with osteoclast precursors; in test [1]; in test [2]) was 0.01 to 0.1 µM each time.
